ChEMBL document CHEMBL5505987 (Eur J Med Chem, 2024)
Calls of active or inactive are those of the source. The rule behind the calls is not given here.

Assays:
4T1 [1] = assay: Cytotoxicity against mouse 4T1 cells assessed as cell viability by MTT assay; assay type: functional, cell-based
4T1 [2] = assay: Antimigratory activity against mouse 4T1 cells assessed as decrease in migration of tumor cells into scratching region at 8 to 10 uM incubated for 12 to 24 hrs by Wound healing assay; assay type: functional, cell-based; settings: dose 8-10 µM, time 12-24 hrs
MDA-MB-231 [3] = assay: Induction of cell cycle arrest in human MDA-MB-231 cells assessed as reduction in CDK6 expression at 1 to 4 uM measured after 24 hrs by immunoblotting assay; assay type: functional, cell-based; settings: dose 1-4 µM
MDA-MB-231 [4] = assay: Anti-tumor activity against human MDA-MB-231 cells assessed as change in TGF-beta1/Smad signaling pathway by measuring fluorescence intensity of p-Smad2 level at 2 to 4 uM after 24 hrs incubation by immunofluorescence staining assay; assay type: functional, cell-based; settings: dose 2-4 µM
MDA-MB-231 [5] = assay: Anti-tumor activity against human MDA-MB-231 cells assessed as change in TGF-beta1/Smad signaling pathway by measuring increase in TGF-beta1 level after 24 hrs incubation by Western blot analysis; assay type: functional, cell-based; settings: dose 1-4 µM
MDA-MB-231 [6] = assay: Anti-metastatic activity in human MDA-MB-231 cells assessed as increase in E-cadherin protein level at 1 to 4 uM by Western blotting analysis; assay type: functional, cell-based; settings: dose 1-4 µM
MDA-MB-231 [7] = assay: Induction of apoptosis in human MDA-MB-231 cells assessed as increase in cleaved PARP expression at 1 to 4 uM incubated for 24 hrs by Western blotting analysis; assay type: functional, cell-based; settings: dose 1-4 µM
[8] = Cytotoxicity against human HFF cells assessed as cell viability by MTT assay; assay type: toxicity, cell-based
4T1 [9] = assay: Induction of ROS production in mouse 4T1 cells at 1 to 4 uM incubated for 24 hrs by flow cytometry; assay type: functional, cell-based; settings: dose 1-4 µM
4T1 [10] = assay: Induction of mitochondrial membrane potential loss in mouse 4T1 cells assessed as decrease in fluorescence intensity by JC-1 aggregate assay; assay type: functional, cell-based; settings: dose 2-4 µM
MDA-MB-231 [11] = assay: Induction of cell cycle arrest in human MDA-MB-231 cells assessed as reduction in p-Rb expression at 1 to 4 uM measured after 24 hrs by immunoblotting assay; assay type: functional, cell-based; settings: dose 1-4 µM
MDA-MB-231 [12] = assay: Reduction in PCNA protein expression in human MDA-MB-231 cells by Western blotting analysis; assay type: functional, cell-based; settings: dose 1-4 µM
MDA-MB-231 [13] = assay: Induction of apoptosis in human MDA-MB-231 cells assessed as increase in cleaved caspase 9 expression at 1 to 4 uM incubated for 24 hrs by Western blotting analysis; assay type: functional, cell-based; settings: dose 1-4 µM
MDA-MB-231 [14] = assay: Induction of cell cycle arrest in human MDA-MB-231 cells assessed as accumulation of cells at G0/G1 phase at 4 uM measured after 24 hrs by PI staining by flow cytometry; assay type: functional
4T1 [15] = assay: Induction of apoptosis in mouse 4T1 cells assessed as increase in apoptotic rate at 6 uM incubated for 24 hrs by Annexin V-FITC/PI double staining by flow cytometry; assay type: functional
MDA-MB-231 [16] = assay: Anti-tumor activity against human MDA-MB-231 cells assessed as change in expression of genes involved in TGF-beta1/Smad signaling pathway measured after 24 hrs incubation by RNA-Seq analysis; assay type: functional, cell-based
MDA-MB-231 [17] = assay: Induction of cell cycle arrest in human MDA-MB-231 cells assessed as accumulation of cells at G0/G1 phase at 1 uM measured after 24 hrs by PI staining by flow cytometry; assay type: functional
MDA-MB-231 [18] = assay: Anti-tumor activity against human MDA-MB-231 cells assessed as decrease in cell viability at 8 uM incubated for 24 hrs in presence of SB-431542 TGF-beta signaling inhibitor by MTT assay; assay type: functional, cell-based
4T1 [19] = assay: Anti-tumor activity against mouse 4T1 cells assessed as decrease in cell viability at 8 uM incubated for 24 hrs in presence of SB-431542 TGF-beta signaling inhibitor by MTT assay; assay type: functional, cell-based
MDA-MB-231 [20] = assay: Induction of apoptosis in human MDA-MB-231 cells assessed as increase in apoptotic rate incubated for 24 hrs in presence of SB-431542 TGF-beta signaling inhibitor by Annexin V-FITC/PI double staining by flow cytometry; assay type: functional, cell-based
MDA-MB-231 [21] = assay: Induction of apoptosis in human MDA-MB-231 cells assessed as increase in apoptotic rate at 1 uM incubated for 24 hrs by Annexin V-FITC/PI double staining by flow cytometry; assay type: functional
MDA-MB-231 [22] = assay: Anti-tumor activity against human MDA-MB-231 cells assessed as change in TGF-beta1/Smad signaling pathway by measuring increase in p-Smad2 level after 24 hrs incubation by Western blot analysis; assay type: functional, cell-based; settings: dose 1-4 µM
MDA-MB-231 [23] = assay: Induction of ROS production in human MDA-MB-231 cells at 1 to 4 uM incubated for 24 hrs by flow cytometry; assay type: functional, cell-based; settings: dose 1-4 µM
4T1 [24] = assay: Induction of apoptosis in mouse 4T1 cells assessed as increase in apoptotic rate incubated for 24 hrs in presence of SB-431542 TGF-beta signaling inhibitor by Annexin V-FITC/PI double staining by flow cytometry; assay type: functional, cell-based
MDA-MB-231 [25] = assay: Induction of cell cycle arrest in human MDA-MB-231 cells assessed as accumulation of cells at G0/G1 phase measured after 24 hrs in presence of SB-431542 TGF-beta signaling inhibitor by PI staining by flow cytometry; assay type: functional, cell-based
MDA-MB-231 [26] = assay: Anti-tumor activity against human MDA-MB-231 cells assessed as change in TGF-beta1/Smad signaling pathway by measuring increase in p-Smad3 level after 24 hrs incubation by Western blot analysis; assay type: functional, cell-based; settings: dose 1-4 µM
MDA-MB-231 [27] = assay: Cytotoxicity against human MDA-MB-231 cells assessed as cell viability by MTT assay; assay type: functional, cell-based
MDA-MB-231 [28] = assay: Anti-metastatic activity in human MDA-MB-231 cells assessed as decrease in vimentin protein level at 1 to 4 uM by Western blotting analysis; assay type: functional, cell-based; settings: dose 1-4 µM
MDA-MB-231 [29] = assay: Anti-tumor activity against human MDA-MB-231 cells assessed as change in TGF-beta1/Smad signaling pathway by measuring fluorescence intensity of TGF-beta1 level at 2 to 4 uM after 24 hrs incubation by immunofluorescence staining assay; assay type: functional, cell-based; settings: dose 2-4 µM
MDA-MB-231 [30] = assay: Anti-metastatic activity in human MDA-MB-231 cells assessed as decrease in ZEB1 protein level at 1 to 4 uM by Western blotting analysis; assay type: functional, cell-based; settings: dose 1-4 µM

In the case of O=C1C[C@@H](c2ccccc2)Oc2cc(O)c([C@H](/C=C/C[C@@H](O)CCc3ccccc3)c3ccccc3)c(O)c21, the IC50 (4T1 [1]) is reported as 2.82 µM, the Activity (4T1 [2]) is reported as “Active” and the Activity (MDA-MB-231 [3]) is reported as “Active”. For the same compound, the Activity (MDA-MB-231 [4]) was “Active”, the Activity (MDA-MB-231 [5]) was “Dose-Dependent Effect” and the Activity (MDA-MB-231 [6]) was “Active”. For the same compound, the Activity (MDA-MB-231 [7]) was “Active”, the IC50 [8] was 5.91 µM and the Activity (4T1 [9]) was “Active”. For the same compound, the Activity (4T1 [10]) was “Dose-Dependent Effect”, the Activity (MDA-MB-231 [11]) was “Active” and the inhibition (MDA-MB-231 [12]) was “Dose-Dependent Effect”. The Activity (MDA-MB-231 [13]) was “Active”, the Activity (MDA-MB-231 [14]) was 71.78% and the Activity (4T1 [15]) was 48.24%. For the same compound, the Activity (MDA-MB-231 [16]) was “Active”, the Activity (MDA-MB-231 [17]) was 49.59% and the Activity (MDA-MB-231 [18]) was “inactive”. The Activity (4T1 [19]) was “inactive”, the Activity (MDA-MB-231 [20]) was “inactive” and the Activity (MDA-MB-231 [21]) was 6.84%. The Activity (MDA-MB-231 [22]) was “Dose-Dependent Effect”, the Activity (MDA-MB-231 [23]) was “Active” and the Activity (4T1 [24]) was “inactive”. For the same compound, the Activity (MDA-MB-231 [25]) was “inactive”, the Activity (MDA-MB-231 [26]) was “Dose-Dependent Effect” and the IC50 (MDA-MB-231 [27]) was 4.33 µM. For the same compound, the Activity (MDA-MB-231 [28]) was “Active”, the Activity (MDA-MB-231 [29]) was “Active” and the Activity (MDA-MB-231 [30]) was “Active”.
